Assay results taken from ChEMBL document CHEMBL4346757, “Synthesis and biological evaluation of 7-methoxy-1-(3,4,5-trimethoxyphenyl)-4,5-dihydro-2H-benzo[e]indazoles as new colchicine site inhibitors” (Bioorg Med Chem Lett, 2019).

Tests used:
Type in all cases: functional
HCT-15 [1] = test: Growth inhibition of human HCT15 cells assessed as cell growth at 0.1 uM after 48 hrs by SRB assay relative to control; conditions: HCT-15, 48 h, read-out: Activity
NCI-H522 = test: Growth inhibition of human NCI-H522 cells assessed as cell growth at 10 uM after 48 hrs by SRB assay relative to control; conditions: NCI-H522, 48 h, read-out: Activity
NCI-H23 = test: Growth inhibition of human NCI-H23 cells assessed as cell growth at 0.1 uM after 48 hrs by SRB assay relative to control; conditions: NCI-H23, 48 h, read-out: Activity
LOX IMVI = test: Cytotoxicity against human LOXIMVI cells assessed as growth inhibition after 48 hrs by SRB assay
SN12C = test: Growth inhibition of human SN12C cells assessed as cell growth at 100 uM after 48 hrs by SRB assay relative to control; conditions: read-out: Activity
786-0 = test: Cytotoxicity against human 786-0 cells assessed as growth inhibition after 48 hrs by SRB assay; conditions: 786-0, 48 h
BT-549 = test: Growth inhibition of human BT549 cells assessed as cell growth at 0.1 uM after 48 hrs by SRB assay relative to control; conditions: BT-549, 48 h, read-out: Activity
RPMI-8226 = test: Growth inhibition of human RPMI8226 cells assessed as cell growth at 100 uM after 48 hrs by SRB assay relative to control; conditions: RPMI-8226, 48 h, read-out: Activity
OVCAR-8 = test: Growth inhibition of human OVCAR8 cells assessed as cell growth at 1 uM after 48 hrs by SRB assay relative to control; conditions: OVCAR-8, 48 h, read-out: Activity
NCI/ADR-RES = test: Growth inhibition of human NCI-ADR-RES cells assessed as cell growth at 100 uM after 48 hrs by SRB assay relative to control; conditions: read-out: Activity
OVCAR-4 [2] = test: Growth inhibition of human OVCAR4 cells assessed as cell growth at 10 uM after 48 hrs by SRB assay relative to control; conditions: OVCAR-4, 48 h, read-out: Activity
PC-3 = test: Growth inhibition of human PC3 cells assessed as cell growth at 0.01 uM after 48 hrs by SRB assay relative to control; conditions: PC-3, 48 h, read-out: Activity
MOLT-4 = test: Growth inhibition of human MOLT4 cells assessed as cell growth at 100 uM after 48 hrs by SRB assay relative to control; conditions: MOLT-4, 48 h, read-out: Activity
SF-539 = test: Growth inhibition of human SF539 cells assessed as cell growth at 100 uM after 48 hrs by SRB assay relative to control; conditions: SF-539, 48 h, read-out: Activity
HOP-62 = test: Growth inhibition of human HOP62 cells assessed as cell growth at 10 uM after 48 hrs by SRB assay relative to control; conditions: HOP-62, 48 h, read-out: Activity
UACC-62 = test: Growth inhibition of human UACC62 cells assessed as cell growth at 0.01 uM after 48 hrs by SRB assay relative to control; conditions: UACC-62, 48 h, read-out: Activity
CCRF-CEM = test: Growth inhibition of human CCRF-CEM cells assessed as cell growth at 0.1 uM after 48 hrs by SRB assay relative to control; conditions: read-out: Activity
HCC 2998 = test: Growth inhibition of human HCC2998 cells assessed as cell growth at 0.1 uM after 48 hrs by SRB assay relative to control; conditions: HCC 2998, 48 h, read-out: Activity
OVCAR-4 [3] = test: Growth inhibition of human OVCAR4 cells assessed as cell growth at 1 uM after 48 hrs by SRB assay relative to control; conditions: OVCAR-4, 48 h, read-out: Activity
HCT-116 = test: Growth inhibition of human HCT116 cells assessed as cell growth at 1 uM after 48 hrs by SRB assay relative to control; conditions: HCT-116, 48 h, read-out: Activity
K562 = test: Growth inhibition of human K562 cells assessed as cell growth at 1 uM after 48 hrs by SRB assay relative to control; conditions: K562, 48 h, read-out: Activity
MCF7 = test: Growth inhibition of human MCF7 cells assessed as cell growth at 100 uM after 48 hrs by SRB assay relative to control; conditions: MCF7, 48 h, read-out: Activity
HCT-15 [4] = test: Growth inhibition of human HCT15 cells assessed as cell growth at 10 uM after 48 hrs by SRB assay relative to control; conditions: HCT-15, 48 h, read-out: Activity
OVCAR-4 [5] = test: Growth inhibition of human OVCAR4 cells assessed as cell growth at 0.1 uM after 48 hrs by SRB assay relative to control; conditions: OVCAR-4, 48 h, read-out: Activity
M14 = test: Growth inhibition of human M14 cells assessed as cell growth at 1 uM after 48 hrs by SRB assay relative to control; conditions: M14, 48 h, read-out: Activity
SK-MEL-5 = test: Growth inhibition of human SK-MEL-5 cells assessed as cell growth at 100 uM after 48 hrs by SRB assay relative to control; conditions: SK-MEL-5, 48 h, read-out: Activity
A549 = test: Cytotoxicity against human A549/ATCC cells assessed as growth inhibition after 48 hrs by SRB assay; conditions: A549, 48 h
SF-295 = test: Growth inhibition of human SF295 cells assessed as cell growth at 0.01 uM after 48 hrs by SRB assay relative to control; conditions: SF-295, 48 h, read-out: Activity
SNB-75 = test: Growth inhibition of human SNB75 cells assessed as cell growth at 0.1 uM after 48 hrs by SRB assay relative to control; conditions: SNB-75, 48 h, read-out: Activity
KM12 = test: Growth inhibition of human KM12 cells assessed as cell growth at 0.01 uM after 48 hrs by SRB assay relative to control; conditions: KM12, 48 h, read-out: Activity
SK-OV-3 = test: Growth inhibition of human SKOV3 cells assessed as cell growth at 0.01 uM after 48 hrs by SRB assay relative to control; conditions: SK-OV-3, 48 h, read-out: Activity
SR = test: Cytotoxicity against human SR cells assessed as growth inhibition after 48 hrs by SRB assay
[6] = read-out: LC50 (the source's name)
[7] = read-out: pLC50 (the source's name) (converted)

Structure (SMILES): COc1ccc2c(c1)CCc1n[nH]c(-c3cc(OC)c(OC)c(OC)c3)c1-2
- growth at 0.1 µM (HCT-15 [1]): 4%
- growth at 10 µM (NCI-H522): -17%
- growth at 0.1 µM (NCI-H23): 5%
- GI50 (LOX IMVI; read-out: GI50): < 0.01 µM
- CC50 (LOX IMVI; [6]): 38.3 µM
- TGI (LOX IMVI; read-out: TGI): 11.8 µM
- GI50 (LOX IMVI; read-out: pGI50 (converted)): < 0.01 µM
- CC50 (LOX IMVI; [7]): 38 µM
- TGI (LOX IMVI; read-out: pTGI (converted)): 11.7 µM
- growth at 100 µM (SN12C): -47%
- GI50 (786-0; read-out: GI50): < 0.01 µM
- CC50 (786-0; [6]): > 100 µM
- TGI (786-0; read-out: TGI): 11.5 µM
- GI50 (786-0; read-out: pGI50 (converted)): < 0.01 µM
- CC50 (786-0; [7]): > 100 µM
- TGI (786-0; read-out: pTGI (converted)): 11.5 µM
- growth at 0.1 µM (BT-549): 1%
- growth at 100 µM (RPMI-8226): 15%
- growth at 1 µM (OVCAR-8): 10%
- growth at 100 µM (NCI/ADR-RES): -31%
- growth at 10 µM (OVCAR-4 [2]): 35%
- growth at 0.01 µM (PC-3): 20%
- growth at 100 µM (MOLT-4): 6%
- growth at 100 µM (SF-539): -78%
- growth at 10 µM (HOP-62): 3%
- growth at 0.01 µM (UACC-62): 23%
- growth at 0.1 µM (CCRF-CEM): 42%
- growth at 0.1 µM (HCC 2998): 11%
- growth at 1 µM (OVCAR-4 [3]): 40%
- growth at 1 µM (HCT-116): 1%
- growth at 1 µM (K562): 18%
- growth at 100 µM (MCF7): -38%
- growth at 10 µM (HCT-15 [4]): 3%
- growth at 0.1 µM (OVCAR-4 [5]): 44%
- growth at 1 µM (M14): 4%
- growth at 100 µM (SK-MEL-5): -97%
- GI50 (A549; read-out: GI50): < 0.01 µM
- CC50 (A549; [6]): > 100 µM
- TGI (A549; read-out: TGI): 19.5 µM
- GI50 (A549; read-out: pGI50 (converted)): < 0.01 µM
- CC50 (A549; [7]): > 100 µM
- TGI (A549; read-out: pTGI (converted)): 19.5 µM
- growth at 0.01 µM (SF-295): 3%
- growth at 0.1 µM (SNB-75): 31%
- growth at 0.01 µM (KM12): 14%
- growth at 0.01 µM (SK-OV-3): -1%
- GI50 (SR; read-out: GI50): < 0.01 µM
- CC50 (SR; [6]): > 100 µM
- TGI (SR; read-out: TGI): 22.9 µM
- GI50 (SR; read-out: pGI50 (converted)): < 0.01 µM
- CC50 (SR; [7]): > 100 µM
- TGI (SR; read-out: pTGI (converted)): 22.9 µM
